Measurements: BindingDB's records for patent US20230365537 (Oric Pharmaceuticals, 2023)
Values joined by “and” are separate entries in the source; they are usually repeats but may differ in a detail not shown here. Equal entries are not always repeated.

What was measured:
[1] = target: T1, Serine/threonine-protein kinase PLK4 (Homo sapiens, UniProt O00444); assay: PLK4 Biochemical Assay
T1 sequence (O00444 whole entry): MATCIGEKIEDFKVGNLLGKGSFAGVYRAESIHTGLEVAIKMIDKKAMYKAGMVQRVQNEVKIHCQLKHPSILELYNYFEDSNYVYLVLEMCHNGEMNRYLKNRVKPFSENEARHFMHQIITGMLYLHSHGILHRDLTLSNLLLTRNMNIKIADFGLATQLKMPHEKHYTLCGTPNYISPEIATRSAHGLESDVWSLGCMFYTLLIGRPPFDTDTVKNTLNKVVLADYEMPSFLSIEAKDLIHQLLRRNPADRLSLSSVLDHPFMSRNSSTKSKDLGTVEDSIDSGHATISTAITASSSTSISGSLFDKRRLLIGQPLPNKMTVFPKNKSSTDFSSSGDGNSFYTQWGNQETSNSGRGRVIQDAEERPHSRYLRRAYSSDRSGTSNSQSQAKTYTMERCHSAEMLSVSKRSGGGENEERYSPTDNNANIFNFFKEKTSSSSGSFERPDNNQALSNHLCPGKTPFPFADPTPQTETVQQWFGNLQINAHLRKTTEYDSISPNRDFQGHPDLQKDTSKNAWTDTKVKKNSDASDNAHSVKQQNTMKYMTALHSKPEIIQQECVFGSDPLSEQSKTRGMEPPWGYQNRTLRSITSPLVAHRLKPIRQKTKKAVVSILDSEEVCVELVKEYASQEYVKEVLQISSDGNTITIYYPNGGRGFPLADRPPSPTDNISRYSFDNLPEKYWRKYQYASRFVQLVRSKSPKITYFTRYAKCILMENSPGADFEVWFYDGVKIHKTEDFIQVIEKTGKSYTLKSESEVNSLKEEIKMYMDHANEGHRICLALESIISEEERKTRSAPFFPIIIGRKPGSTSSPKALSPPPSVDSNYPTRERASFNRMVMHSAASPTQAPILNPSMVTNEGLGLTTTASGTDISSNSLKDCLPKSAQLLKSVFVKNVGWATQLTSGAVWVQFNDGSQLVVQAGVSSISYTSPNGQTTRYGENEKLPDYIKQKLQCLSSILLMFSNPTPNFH
Procedure: (§1) Activity of human recombinant PLK4 (ThermoFisher, cat #PV6396) was measured by quantification of adenosine diphosphate (ADP) using the ADP-Glo Kinase Assay Kit (Promega, cat #V9102). […] 5 µL of 1.0 nM PLK4 protein in assay buffer (50 mM HEPES, pH 7.5, 0.01% Brij-35, 0.01% BSA, 10 mM MgCl2, 1 mM EGTA, 1 mM DTT) was added to the plates. Test compounds and PLK4 were incubated for 15 minutes at room temperature (RT). […] Reactions were stopped and the remaining ATP depleted by adding 10 µL of ADP-Glo reagent (Promega, cat#V912B) and incubating for 40 minutes at RT. The simultaneous conversion of the remaining ADP to ATP and measurement of the newly synthesized ATP was achieved by addition of 20 µL Kinase Detection reagent (Promega, cat #V914B), incubation for 30 min at RT, and luminescence detection using the EnVision plate reader (PerkinElmer). […] The IC50 values reported in Table 2 were determined using four parameter non-linear regression curve fit.

Aurora kinase A = target: T2, Aurora kinase A (Homo sapiens, UniProt O14965); assay: Aurora A Kinase Biochemical Assay
T2 sequence (O14965 whole entry): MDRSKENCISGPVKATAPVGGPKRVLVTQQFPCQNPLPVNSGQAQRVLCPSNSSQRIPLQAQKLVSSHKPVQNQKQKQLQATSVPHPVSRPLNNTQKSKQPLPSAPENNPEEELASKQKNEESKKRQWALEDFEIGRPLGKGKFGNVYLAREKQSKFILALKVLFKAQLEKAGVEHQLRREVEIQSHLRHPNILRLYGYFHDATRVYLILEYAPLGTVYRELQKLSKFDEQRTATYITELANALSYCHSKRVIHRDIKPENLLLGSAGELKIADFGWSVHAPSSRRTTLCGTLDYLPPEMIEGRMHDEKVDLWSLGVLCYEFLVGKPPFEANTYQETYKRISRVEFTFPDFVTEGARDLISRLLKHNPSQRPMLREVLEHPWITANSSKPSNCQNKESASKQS
Procedure: as §1, with “Aurora A” for “PLK4”, “#PR5935A)” for “#PV6396)”, “5.0” for “1.0”, “Aurora A” for “PLK4 protein”, “10uL” for “10 µL”

Aurora kinase B = Aurora kinase B (Homo sapiens, UniProt Q96GD4); assay: Aurora B Kinase Biochemical Assay
Procedure: as §1, with “Aurora B” for “PLK4”, “#PR9210B)” for “#PV6396)”, “20” for “1.0”, “Aurora B” for “PLK4 protein”, “10uL” for “10 µL”, “parameter” for “parameter non-linear regression curve fit.”

Sequence of Aurora kinase B (Q96GD4 whole entry): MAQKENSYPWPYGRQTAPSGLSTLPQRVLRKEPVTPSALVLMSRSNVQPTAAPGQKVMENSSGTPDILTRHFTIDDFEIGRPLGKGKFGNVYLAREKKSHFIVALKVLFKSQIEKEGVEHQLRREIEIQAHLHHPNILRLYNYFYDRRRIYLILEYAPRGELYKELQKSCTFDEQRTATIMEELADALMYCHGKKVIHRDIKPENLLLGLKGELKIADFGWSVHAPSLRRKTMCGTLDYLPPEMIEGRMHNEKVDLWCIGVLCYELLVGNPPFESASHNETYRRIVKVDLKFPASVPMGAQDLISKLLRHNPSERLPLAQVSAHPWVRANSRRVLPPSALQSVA

IC50 [1] | IC50 (Aurora kinase A) | IC50 (Aurora kinase B) | Structure (SMILES)
4.02 nM |  |  | COc1ccc2c(c1)[C@]1(C[C@H]1c1ccc3c(Nc4cc(S(=O)(=O)C5CCOCC5)ccc4OC)n[nH]c3c1)C(=O)N2 [US20230365537, Example 224]
 | 1860 nM and 2030 nM | 521 nM and 1060 nM | COc1ccc2c(c1)[C@]1(C[C@H]1c1ccc3c(Nc4ccc(S(C)(=O)=O)nc4OC)n[nH]c3c1)C(=O)N2 [US20230365537, Example 168]
2.8 nM |  |  | COc1ccc2c(c1)[C@]1(C[C@H]1c1ccc3c(Nc4cc(N5CCN(C)C5=O)cnc4OC)n[nH]c3c1)C(=O)N2 [US20230365537, Example 221]
